According to the supplement of paper PMC10307832:

Experiments:
Experiment in all cases: relative viability (nuclei count vs DMSO), 5 days (fraction); higher = more cells survive
[1] = compound: C1=CC2=NC=CN=C2C=C1/C=C/3\C(=O)NC(=O)S3 + Cc1nc(Nc2ncc(C(=O)Nc3c(C)cccc3Cl)s2)cc(N2CCN(CCO)CC2)n1 [Dasatinib] (partner 0.075 µM)
Method in brief: (§1)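 Relative viability divides the nuclei count in treated wells by that in vehicle wells. Lung cancer cell lines were seeded in 1536-well plates, dosed by pin tool the next day, and fixed and stained after 5 days in one step with final 0.05% Triton X-100, 1% formaldehyde and 1 ug/ml Hoechst. Dosing was a single drug or a fixed anchor-drug dose plus five library-drug doses (not always all listed) in √10 steps, and values are medians of duplicate plates imaged at 4×.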

[2] = compound: CCN1CCN(c2ccc(Nc3cc(N(C)C(=O)Nc4c(Cl)c(OC)cc(OC)c4Cl)ncn3)cc2)CC1 [BGJ398] + Nc1nc2[nH]cc(CCc3ccc(C(=O)N[C@@H](CCC(=O)O)C(=O)O)cc3)c2c(=O)[nH]1 [Pemetrexed] (partner 0.2 µM)
Method in brief: as §1

[3] = compound: CCN1CCN(c2ccc(Nc3cc(N(C)C(=O)Nc4c(Cl)c(OC)cc(OC)c4Cl)ncn3)cc2)CC1 [BGJ398] + Cc1cc(Nc2cc(N3CCN(C)CC3)nc(Sc3ccc(NC(=O)C4CC4)cc3)n2)n[nH]1 [Tozasertib] (partner 0.1 µM)
Method in brief: as §1

[4] = compound: CCN1CCN(c2ccc(Nc3cc(N(C)C(=O)Nc4c(Cl)c(OC)cc(OC)c4Cl)ncn3)cc2)CC1 [BGJ398] + CC(C)C[C@H](NC(=O)[C@H](Cc1ccccc1)NC(=O)c1cnccn1)B(O)O [Bortezomib] (partner 0.002 µM)
Method in brief: as §1

Cell Line | relative viability ([1]; first compound 0.02 µM) | relative viability ([1]; first compound 0.06325 µM) | relative viability ([1]; first compound 0.2 µM) | relative viability ([1]; first compound 0.6325 µM) | relative viability ([1]; first compound 2 µM) | relative viability ([2]; first compound 0.01 µM) | relative viability ([2]; first compound 0.03162 µM) | relative viability ([2]; first compound 0.1 µM) | relative viability ([2]; first compound 0.3162 µM) | relative viability ([2]; first compound 1 µM) | relative viability ([3]; first compound 0.01 µM) | relative viability ([3]; first compound 0.03162 µM) | relative viability ([3]; first compound 0.1 µM) | relative viability ([3]; first compound 0.3162 µM) | relative viability ([3]; first compound 1 µM) | relative viability ([4]; first compound 0.01 µM) | relative viability ([4]; first compound 0.03162 µM) | relative viability ([4]; first compound 0.1 µM) | relative viability ([4]; first compound 0.3162 µM) | relative viability ([4]; first compound 1 µM)
201T | 0.543 | 0.619 | 0.583 | 0.556 | 0.28 | 0.343 | 0.339 | 0.338 | 0.329 | 0.334 | 1.05 | 0.877 | 0.965 | 0.914 | 0.91 | 1.24 | 1.08 | 1.11 | 1.07 | 1.04
A-427 | 0.685 | 0.753 | 0.692 | 0.659 | 0.541 | 1.03 | 1.08 | 0.958 | 0.924 | 0.918 | 0.192 | 0.153 | 0.162 | 0.179 | 0.152 | 0.984 | 0.991 | 1.12 | 0.774 | 0.743
ABC-1 | 0.507 | 0.757 | 0.488 | 0.611 | 0.538 |  |  |  |  |  | 0.186 | 0.168 | 0.197 | 0.173 | 0.198 | 0.306 | 0.34 | 0.287 | 0.321 | 0.299
BEN | 0.362 | 0.35 | 0.297 | 0.352 | 0.252 | 0.703 | 0.812 | 0.751 | 0.749 | 0.606 | 0.587 | 0.488 | 0.543 | 0.513 | 0.527 | 0.719 | 0.976 | 0.715 | 0.656 | 0.619
CAL-12T | 0.417 | 0.34 | 0.439 | 0.304 | 0.139 | 1.17 | 1.21 | 1.1 | 1.34 | 1.01 | 0.285 | 0.324 | 0.279 | 0.233 | 0.243 | 0.954 | 0.852 | 0.996 | 0.943 | 0.837
COR-L23 | 0.446 | 0.481 | 0.395 | 0.477 | 0.344 | 0.189 | 0.191 | 0.192 | 0.208 | 0.193 | 0.216 | 0.248 | 0.205 | 0.188 | 0.182 | 0.942 | 0.975 | 1.08 | 0.855 | 0.99
COR-L 105 | 0.343 | 0.344 | 0.376 | 0.402 | 0.279 | 1.36 | 1.12 | 0.879 | 1.12 | 0.936 | 0.291 | 0.346 | 0.339 | 0.418 | 0.324 | 0.717 | 0.514 | 0.703 | 0.792 | 0.73
Calu-6 |  |  |  |  |  |  |  |  |  |  |  |  |  |  |  | 0.923 | 0.963 | 1.01 | 1.07 | 0.982
ChaGo-K-1 | 0.611 | 0.574 | 0.596 | 0.544 | 0.499 | 0.261 | 0.249 | 0.242 | 0.269 | 0.281 | 0.229 | 0.24 | 0.19 | 0.215 | 0.226 | 1.12 | 0.928 | 0.957 | 0.896 | 0.604
EBC-1 |  |  |  |  |  |  |  |  |  |  |  |  |  |  |  | 0.616 | 0.614 | 0.589 | 0.53 | 0.526
EKVX | 0.515 | 0.356 | 0.701 | 0.524 | 0.427 | 0.385 | 0.403 | 0.452 | 0.38 | 0.378 | 0.387 | 0.421 | 0.431 | 0.436 | 0.389 | 0.993 | 1.06 | 1.27 | 0.959 | 1.07
EMC-BAC-2 | 0.309 | 0.297 | 0.33 | 0.322 | 0.224 | 0.432 | 0.483 | 0.477 | 0.477 | 0.471 | 0.28 | 0.314 | 0.3 | 0.276 | 0.312 | 1.05 | 1 | 1.14 | 1.08 | 1.01
EPLC-272H | 0.43 | 0.462 | 0.421 | 0.294 | 0.153 | 0.32 | 0.447 | 0.317 | 0.289 | 0.418 | 0.17 | 0.276 | 0.203 | 0.288 | 0.227 | 0.96 | 0.816 | 0.957 | 0.841 | 0.861
H3255 | 0.365 | 0.329 | 0.348 | 0.379 | 0.38 | 0.608 | 0.434 | 0.604 | 0.509 | 0.629 | 0.628 |  | 0.472 | 0.743 | 0.608 | 0.712 |  | 0.712 | 0.439 | 0.69
HARA | 0.278 | 0.315 | 0.3 | 0.243 | 0.194 | 0.237 | 0.22 | 0.215 | 0.273 | 0.248 | 0.0926 | 0.116 | 0.0915 | 0.0847 | 0.0857 | 1.15 | 1.05 | 1.13 | 1.08 | 0.978
HCC-15 | 0.665 | 0.644 | 0.687 | 0.55 | 0.42 | 0.262 | 0.232 | 0.219 | 0.223 | 0.221 | 0.351 | 0.43 | 0.436 | 0.349 | 0.389 | 1.01 | 0.997 | 1.04 | 1.08 | 1.06
HCC-44 |  |  |  |  |  | 0.6 | 0.67 | 0.656 | 0.649 | 0.654 | 0.77 | 0.947 | 1.07 | 1.1 | 0.698 | 0.938 | 0.84 | 0.869 | 0.828 | 0.713
HCC-78 | 0.381 | 0.705 | 0.517 | 0.392 | 0.184 | 1.02 | 0.885 | 0.88 | 0.91 | 0.896 | 0.355 | 0.461 | 0.445 | 0.419 | 0.476 | 0.373 | 0.59 | 0.468 | 0.472 | 0.455
